In US12187703B2, “Crystalline forms of N-(3-(2-(2-hydroxyethoxy)-6-morpholinopyridin-4-yl)-4-methvlphenyl)-2 (trifluoromethyl)isonicotinamide as Raf inhibitors for the treatment of cancer” (NOVARTIS AG, priority 2019, dated 2025):
In brackets after ≈: the same amount, converted by molar mass. Like-named read-outs stand apart in the source and are kept apart here. Blank lines part the entries; values can stand above or below the compound they belong to.

Columns and labels:
Assay type in all cases: physicochemical
[1] = Humidity exposure of amorphous form; details: ambient humidity or 92% RH
[2] = Hygroscopicity, storage and solubility conclusions; details: for Hygroscopicity: non-hygroscopic defined as water uptake at most 2 w-%, 0 to 95% RH, 25° C. (GMS/DVS)
From the text: The term “non-hygroscopic” as used herein refers to a compound showing a water uptake of at most 2 w-% in the sorption cycle when measured with GMS (or DVS) at a relative humidity in the range of from 0 to 95% RH and a temperature of (25.0±0.1) ° C., based on the weight of the compound. Non-hygroscopic is preferably up to 0.2%.

[3] = Behaviour under compression, grinding and granulation with water
[4] = Solubility at 25° C., 24 hours slurry; details: for Final pH: 25° C.; for solubility at 24 h: 25 °C, thermodynamic from solid, read-out: Solubility at 25° C.
Method: A sample was weighed in a glass vial and solvent added to make a slurry followed by stirring or shaking at 25° C. for 24 hours. The amount of sample and solvents depends on the target concentration, e.g. if the target concentration is 10 mg/mL, the weight of the sample should be 10 mg and the amount of solvent volume should be 1 mL. The solid and liquid are separated by centrifugation at 13000 rpm for 2 minutes with 0.2 μm membrane. The filtrate is then used for the solubility test after appropriate dilution. The diluent is from the UPLC method. The solids obtained after equilibration were analyzed by XRPD after being dried at 40° C. under vacuum for 2 hours. DSC/TGA analysis was conducted for selected samples.

[5] = Stability testing, solid state bulk (UPLC, color, XRPD, TGA)
Method: (§1) X-ray powder diffraction (XRPD) analysis of all polymorph forms was performed using a Bruker D8 Discover x-ray diffractometer with XYZ stage. Measurements were taken at about 40 kV and 1 mA under the following conditions:
(§2) Crystalline Monohydrate Form HA was analysed by thermogravimetric analysis (TGA) using a Discovery Thermogravimetric Analysis Calorimeter from TA instruments under the following conditions (see Table 6).
(§3) No notable change in chemical purity, nor change in XRPD, nor change in TGA, was observed.

[6] = as above; design: key: A: No change of color; B: Slight discoloration
Method: as §1, §2, §3

[7] = as above; design: key: A: No change of color; details: Solid state
Method: as §1, §2, §3

[8] = Bulk density and flowability with ring shear tester; details: listed as Modification A
Method: (§4) Pilot manufacture batches producing Modification HA and Form A on kilogram scale were compared for their respective bulk powder properties. The particle size distribution (PSD) was determined according to the corresponding method for release. Other measurements were performed using technical methods known in the art or as described herein.

[9] = Water activity experiments of Form A
Method: About 100 mg of Form A is equilibrated with 0.5 mL solvent by stirring at RT or 50° C. The slurries are filtered. The wet cake is investigated by XRPD.

[10] = Particle size distribution by Fraunhofer light diffraction; details: pilot manufacture batch, kilogram scale; listed as Modification A
Method: as §4
A few drops of the dispersing aid were added to an appropriate amount of test substance. The mixture was mixed intensively, e.g. on a vortex mixer, in order to wet the substance thoroughly and to form a smooth and homogeneous paste. The resultant paste was diluted with the dispersion liquid to a final volume of 3-6 ml and the dispersion mixed again. The cumulative volume distribution was determined using a laser light diffraction instrument as stated above. The parameters could be adjusted accordingly so that the test dispersion is representative, homogeneous and well dispersed.
Particle sizes were determined at the undersize values of 10%, 50% and 90% (×10, ×50, ×90), and additional values in question, from the cumulative volume distribution.

[11] = Solid state, 1 week 50° C., closed container
[12] = Solid state, 1 week 50° C./75% r.h.
[13] = Solid state, 1 week 80° C., closed container
[14] = Solid state, 1 week 80° C./75% r.h.
[15] = Xenon light (approx. 1200 kLuxh)
[16] = 50° C., water 0%/IPA 100%, aw 0.000
[17] = 50° C., water 1%/IPA 99%, aw 0.124
[18] = 50° C., water 3.2%/IPA 96.8%, aw 0.324
[19] = 50° C., water 100%/IPA 0%, aw 1.000
[20] = RT, water 0%/IPA 100%, aw 0.000
[21] = RT, water 100%/IPA 0%, aw 1.000

Compound: Cc1ccc(NC(=O)c2ccnc(C(F)(F)F)c2)cc1-c1cc(OCCO)nc(N2CCOCC2)c1 [amorphous form, N-(3-(2-(2-hydroxyethoxy)-6-morpholinopyridin-4-yl)-4-methylphenyl)-2-(trifluoromethyl)isonicotinamide]
Physical form stability under humidity [1]: remains stable and does not convert to HA

Relative solubility of forms [2]: more soluble than Form A
Solubility, overall rating [2]: adequate solubility
Stability when stored in bulk quantities [2]: stable when stored in bulk quantities
Hygroscopicity [2]: non-hygroscopic
XRPD pattern upon grinding, compression and granulation with water [3]: did not change
Solubility at 25° C. ([4]; 0.01N HCl, pH 2.0): 0.1412 mg/mL (≈ 281 µM)
Final pH ([4]; 0.01N HCl, pH 2.0): 2.04
Solubility at 25° C. ([4]; 0.1N HCl, pH 1.0): 1.0264 mg/mL (≈ 2040 µM)
Final pH ([4]; 0.1N HCl, pH 1.0): 1.02
Solubility at 25° C. ([4]; Acetate buffer, pH 4.7): < 0.0002 mg/mL
Final pH ([4]; Acetate buffer, pH 4.7): 4.78
Solubility at 25° C. ([4]; Acetonitrile): >10 mg/mL
Solubility at 25° C. ([4]; Borate buffer, pH 9.0): < 0.0002 mg/mL
Final pH ([4]; Borate buffer, pH 9.0): 8.97
Solubility at 25° C. ([4]; Dichloromethane): >10 mg/mL
Solubility at 25° C. ([4]; Ethanol): >10 mg/mL
Solubility at 25° C. ([4]; Ethyl acetate): >10 mg/mL
Solubility at 25° C. ([4]; FaSSIF, pH 6.5): 0.0014 mg/mL (≈ 2.79 µM)
Final pH ([4]; FaSSIF, pH 6.5): 6.91
Solubility at 25° C. ([4]; FeSSIF, pH 5.8): 0.1370 mg/mL (≈ 273 µM)
Final pH ([4]; FeSSIF, pH 5.8): 6.08
Solubility at 25° C. ([4]; N,N-Dimethylformamide): >10 mg/mL
Solubility at 25° C. ([4]; Phosphate buffer, pH 6.8): < 0.0002 mg/mL
Final pH ([4]; Phosphate buffer, pH 6.8): 6.75
Solubility at 25° C. ([4]; SGF, pH 2.0): 0.0021 mg/mL (≈ 4.18 µM)
Final pH ([4]; SGF, pH 2.0): 2.02
Solubility at 25° C. ([4]; Water): < 0.0002 mg/mL
Final pH ([4]; Water): 8.11
solubility at 24 h ([4]; heptane, organic solvent or mixture, Heptane): < 0.2 µg/mL
Bulk (XRPD) [5, 11]: no change
DP %, Bulk (UPLC) [5, 11]: 2.46%
Bulk (XRPD) [5, 12]: no change
DP %, Bulk (UPLC) [5, 12]: 2.49%
Bulk (XRPD) [5, 13]: no change
DP %, Bulk (UPLC) [5, 13]: 2.12%
Bulk (XRPD) [5, 14]: changed
DP %, Bulk (UPLC) [5, 14]: 3.32%
Bulk (XRPD) [5, 15]: no change
DP %, Bulk (HPLC) [5, 15]: 3.66%
Stability upon exposure to elevated temperature or humidity ([5]; degradation products and physical form): relatively stable
Color (CL) [6, 14]: B
Color (CL) [6, 15]: B
Color (CL) ([7]; 1 week 50° C., closed container): A
Color (CL) ([7]; 1 week 50° C./75% r.h.): A
Color (CL) ([7]; 1 week 80° C., closed container): A
Compound: Cc1ccc(NC(=O)c2ccnc(C(F)(F)F)c2)cc1-c1cc(OCCO)nc(N2CCOCC2)c1 [Form B, N-(3-(2-(2-hydroxyethoxy)-6-morpholinopyridin-4-yl)-4-methylphenyl)-2-(trifluoromethyl)isonicotinamide]

Bulk flowability with ring shear tester, rating in words ([8]; under 1250 Pa normal stress): “very cohesive”
Technical measurement of bulk flowability with ring shear tester ([8]; under 1250 Pa normal stress): 1.45
Technical measurement of bulk density with ring shear tester ([8]; under no consolidation stress): 71 kg/m^3
Relative solubility of forms [2]: more soluble than Form HA
Solubility, overall rating [2]: adequate solubility
Stability when stored in bulk quantities [2]: stable when stored in bulk quantities
Hygroscopicity [2]: non-hygroscopic
Physical form upon granulation with water or compression [3]: remains unchanged
Crystallinity when compressed ([3]; pressures of 3 to 6 MPa): slight decrease in crystallinity
After 1 d equilibration (wet cake XRPD) [9, 16]: Form A
After 5 d equilibration (wet cake XRPD) [9, 16]: Form A
After 1 d equilibration (wet cake XRPD) [9, 17]: Form A
After 5 d equilibration (wet cake XRPD) [9, 17]: Form A
After 1 d equilibration (wet cake XRPD) [9, 18]: Form A
After 5 d equilibration (wet cake XRPD) [9, 18]: Form A
After 1 d equilibration (wet cake XRPD) [9, 19]: Form A
After 5 d equilibration (wet cake XRPD) [9, 19]: Form A
After 1 d equilibration (wet cake XRPD) [9, 20]: Form A
After 5 d equilibration (wet cake XRPD) [9, 20]: Form A
After 1 d equilibration (wet cake XRPD) ([9]; RT, water 1%/IPA 99%, aw 0.120): Form A
After 5 d equilibration (wet cake XRPD) ([9]; RT, water 1%/IPA 99%, aw 0.120): Form A
After 1 d equilibration (wet cake XRPD) ([9]; RT, water 3.2%/IPA 96.8%, aw 0.316): Form A + HA
After 1 d equilibration (wet cake XRPD) [9, 21]: Form A
After 5 d equilibration (wet cake XRPD) [9, 21]: Form A
Time for complete conversion of Form A to Monohydrate HA ([9]; water activity of 0.3, room temperature): 5 days
Solubility at 25° C. ([4]; 0.01N HCl, pH 2.0): 0.0014 mg/mL (≈ 2.79 µM)
Final pH ([4]; 0.01N HCl, pH 2.0): 2.16
Solubility at 25° C. ([4]; 0.1N HCl, pH 1.0): 0.2929 mg/mL (≈ 583 µM)
Final pH ([4]; 0.1N HCl, pH 1.0): 1.07
Final pH ([4]; Acetate buffer, pH 4.7): 4.82
Final pH ([4]; Borate buffer, pH 9.0): 9.01
solubility at 24 h ([4]; FaSSIF, pH 6.5, fassif, FaSSIF, pH 6.5): 0.8 µg/mL (≈ 1.59 µM)
Final pH ([4]; FaSSIF, pH 6.5): 6.45
Solubility at 25° C. ([4]; FeSSIF, pH 5.8): 0.0413 mg/mL (≈ 82.2 µM)
Final pH ([4]; FeSSIF, pH 5.8): 5.82
solubility at 24 h ([4]; N,N-dimethylformamide, organic solvent or mixture, N,N-Dimethylformamide): > 10000 µg/mL
Final pH ([4]; Phosphate buffer, pH 6.8): 6.74
Solubility at 25° C. ([4]; SGF, pH 2.0): 0.0220 mg/mL (≈ 43.8 µM)
Final pH ([4]; SGF, pH 2.0): 2.05
Final pH ([4]; Water): 8.93
solubility at 24 h ([4]; acetate buffer, pH 4.7, aqueous buffer, Acetate buffer, pH 4.7): < 0.3 µg/mL
solubility at 24 h ([4]; acetonitrile, organic solvent or mixture, Acetonitrile): > 10000 µg/mL
solubility at 24 h ([4]; borate buffer, pH 9, aqueous buffer, Borate buffer, pH 9.0): < 0.3 µg/mL
solubility at 24 h ([4]; dichloromethane, organic solvent or mixture, Dichloromethane): > 10000 µg/mL
solubility at 24 h ([4]; ethanol, organic solvent or mixture, Ethanol): > 10000 µg/mL
solubility at 24 h ([4]; ethyl acetate, organic solvent or mixture, Ethyl acetate): > 10000 µg/mL
solubility at 24 h ([4]; phosphate buffer, pH 6.8, aqueous buffer, Phosphate buffer, pH 6.8): < 0.3 µg/mL
solubility at 24 h ([4]; water, water, Water): < 0.3 µg/mL
Diameter X of PSD measured during release, X50 [10]: X50: 8 μm
Diameter X of PSD measured during release, X90 [10]: X90: 44 μm
Compound: Cc1ccc(NC(=O)c2ccnc(C(F)(F)F)c2)cc1-c1cc(OCCO)nc(N2CCOCC2)c1 [Form A, N-(3-(2-(2-hydroxyethoxy)-6-morpholinopyridin-4-yl)-4-methylphenyl)-2-(trifluoromethyl)isonicotinamide]
